Assay results as given in PMC9090415, “Discovery of small molecule inhibitors of Plasmodium falciparum apicoplast DNA polymerase” (Journal of Enzyme Inhibition and Medicinal Chemistry, 2022).

Biological target: T1, bacteriophage T4 DNA polymerase (Enterobacteria phage T4, UniProt P04415)
T1 construct: made in house
T1 sequence (P04415 1-898): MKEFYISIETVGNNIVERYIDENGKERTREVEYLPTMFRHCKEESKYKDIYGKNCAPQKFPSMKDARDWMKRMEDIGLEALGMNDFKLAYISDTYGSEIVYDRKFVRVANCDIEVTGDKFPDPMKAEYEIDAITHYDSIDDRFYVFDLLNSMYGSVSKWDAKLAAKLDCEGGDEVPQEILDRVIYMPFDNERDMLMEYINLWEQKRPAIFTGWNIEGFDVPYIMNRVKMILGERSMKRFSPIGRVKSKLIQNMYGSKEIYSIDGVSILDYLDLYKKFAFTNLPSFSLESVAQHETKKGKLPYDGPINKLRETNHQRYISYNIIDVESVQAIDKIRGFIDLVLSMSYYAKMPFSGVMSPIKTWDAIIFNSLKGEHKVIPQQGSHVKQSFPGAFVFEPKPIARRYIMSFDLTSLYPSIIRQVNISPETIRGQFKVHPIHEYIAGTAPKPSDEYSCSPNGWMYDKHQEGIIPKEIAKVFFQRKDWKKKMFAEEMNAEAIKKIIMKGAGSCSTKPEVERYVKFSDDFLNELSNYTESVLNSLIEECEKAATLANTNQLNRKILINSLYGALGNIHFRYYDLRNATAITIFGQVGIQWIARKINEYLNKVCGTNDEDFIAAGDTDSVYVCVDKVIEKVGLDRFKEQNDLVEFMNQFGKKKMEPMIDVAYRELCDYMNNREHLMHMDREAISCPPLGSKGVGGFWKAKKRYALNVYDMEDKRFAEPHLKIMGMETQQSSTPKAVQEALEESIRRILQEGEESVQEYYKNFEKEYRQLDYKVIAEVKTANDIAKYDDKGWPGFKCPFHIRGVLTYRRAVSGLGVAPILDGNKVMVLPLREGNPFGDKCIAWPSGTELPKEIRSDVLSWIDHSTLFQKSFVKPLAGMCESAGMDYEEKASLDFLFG
Experiment: Counter-screen against bacteriophage T4 DNA polymerase
Format: biochemical
Conditions: for % inhibition T4 10' 2.5 / % inhibition T4 10' 5 / % inhibition T4 10' 10 / % inhibition T4 10' 20 / % inhibition T4 10' 40 / % inhibition T4 10' 80: read at 10'
Protocol: Codon-optimized, exonuclease-deficient Pf-apPOL was overexpressed in E. coli BL21 (DE3) and purified as described. The protein was dialysed against two, 1-liter changes of 20 mM Tris-HCl (pH 8.0), 400 mM NaCl, and 20% glycerol. Plasmodium bergei and Babesia bovis apPOLs (Pb-apPOL and Bb-apPOL, respectively) were codon-optimized, expressed, and purified as for Pf-apPOL[15]. Bacteriophage T4 DNA polymerase was purified as described. The DNA oligonucleotides used to make the high-throughput substrate were obtained from Integrated DNA Technologies. Deoxynucleotides were purchased from Strategene. All other materials came from Fisher Scientific.
Each compound was tested in a dose-response format to determine IC50 values. […] T4 DNA polymerase can be produced in large quantities, and is in the same family (B-family) as the replicative human DNA polymerases (α, δ, and ε)[20].

For `CC(=O)OCC1=C(C(=O)[O-])N2C(=O)[C@@H](NC(=O)Cc3cccs3)[C@H]2SC1.[Na+]` [Molecule 73, CC(=O)OCC1=C(C(=O)[O-])N2[C@H](SC1)[C@@H](C2=O)NC(=O)Cc1cccs1.[Na+]], the “% inhibition T4 10' 2.5” value (DRC-1, concentration 2.5) was 11.7205%, the “% inhibition T4 10' 5” value (DRC-1, concentration 5) was 17.9504% and the “% inhibition T4 10' 10” value (DRC-1, concentration 10) was 24.8784%. For the same compound, the “% inhibition T4 10' 20” value (DRC-1, concentration 20) was 32.107%, the “% inhibition T4 10' 40” value (DRC-1, concentration 40) was 49.9492% and the “% inhibition T4 10' 80” value (DRC-1, concentration 80) was 43.1529%. The “% inhibition T4 70' 2.5” value (DRC-1, read at 70', concentration 2.5) was 9.196%, the “% inhibition T4 70' 5” value (DRC-1, read at 70', concentration 5) was 11.8887% and the “% inhibition T4 70' 10” value (DRC-1, read at 70', concentration 10) was 17.9088%. The “% inhibition T4 70' 20” value (DRC-1, read at 70', concentration 20) was 22.6844%, the “% inhibition T4 70' 40” value (DRC-1, read at 70', concentration 40) was 42.1653% and the “% inhibition T4 70' 80” value (DRC-1, read at 70', concentration 80) was 41.199%. For the same compound, the “% inhibition T4 130' 2.5” value (DRC-1, read at 130', concentration 2.5) was 4.91%, the “% inhibition T4 130' 5” value (DRC-1, read at 130', concentration 5) was 7.499% and the “% inhibition T4 130' 10” value (DRC-1, read at 130', concentration 10) was 13.1805%. For the same compound, the “% inhibition T4 130' 20” value (DRC-1, read at 130', concentration 20) was 16.8593%, the “% inhibition T4 130' 40” value (DRC-1, read at 130', concentration 40) was 38.0136% and the “% inhibition T4 130' 80” value (DRC-1, read at 130', concentration 80) was 33.8147%. The “% inhibition T4 10' 2.5” value (DRC-2, concentration 2.5) was 0.14%, the “% inhibition T4 10' 5” value (DRC-2, concentration 5) was 0.574% and the “% inhibition T4 10' 10” value (DRC-2, concentration 10) was 12%. The “% inhibition T4 10' 20” value (DRC-2, concentration 20) was 17%, the “% inhibition T4 10' 40” value (DRC-2, concentration 40) was 26% and the “% inhibition T4 10' 80” value (DRC-2, concentration 80) was 36%. The “% inhibition T4 40' 2.5” value (DRC-2, read at 40', concentration 2.5) was 0.442%, the “% inhibition T4 40' 5” value (DRC-2, read at 40', concentration 5) was 0.491% and the “% inhibition T4 40' 10” value (DRC-2, read at 40', concentration 10) was 11%. The “% inhibition T4 40' 20” value (DRC-2, read at 40', concentration 20) was 17%, the “% inhibition T4 40' 40” value (DRC-2, read at 40', concentration 40) was 25% and the “% inhibition T4 40' 80” value (DRC-2, read at 40', concentration 80) was 42%. The “% inhibition T4 90' 2.5” value (DRC-2, read at 90', concentration 2.5) was 1.28%, the “% inhibition T4 90' 10” value (DRC-2, read at 90', concentration 10) was 10% and the “% inhibition T4 90' 20” value (DRC-2, read at 90', concentration 20) was 17%. For the same compound, the “% inhibition T4 90' 40” value (DRC-2, read at 90', concentration 40) was 23%, the “% inhibition T4 90' 80” value (DRC-2, read at 90', concentration 80) was 41% and the “% inhibition T4 180' 2.5” value (DRC-2, read at 180', concentration 2.5) was 0.485%. The “% inhibition T4 180' 5” value (DRC-2, read at 180', concentration 5) was -2.85%, the “% inhibition T4 180' 10” value (DRC-2, read at 180', concentration 10) was 6.41% and the “% inhibition T4 180' 20” value (DRC-2, read at 180', concentration 20) was 14%. The “% inhibition T4 180' 40” value (DRC-2, read at 180', concentration 40) was 20% and the “% inhibition T4 180' 80” value (DRC-2, read at 180', concentration 80) was 41%.

`Cc1nc(/N=N/c2ccc(C(=O)[O-])cc2)c(COP(=O)([O-])[O-])c(C=O)c1O.[Na+].[Na+].[Na+]` [KU0261395] was tested, and the “% inhibition T4 10'” value (DRC-2, concentration 2.5) was -16%, the “% inhibition T4 10'” value (DRC-2, concentration 5) was -9% and the “% inhibition T4 10'” value (DRC-2, concentration 40) was -10%. The “% inhibition T4 10'” value (DRC-2, concentration 80) was -18%, the “% inhibition T4 40'” value (DRC-2, concentration 2.5) was -20% and the “% inhibition T4 40'” value (DRC-2, concentration 5) was -16%. For the same compound, the “% inhibition T4 40'” value (DRC-2, concentration 80) was -18%, the “% inhibition T4 90'” value (DRC-2, concentration 2.5) was -20% and the “% inhibition T4 90'” value (DRC-2, concentration 5) was -18%. For the same compound, the “% inhibition T4 90'” value (DRC-2, concentration 10) was -9%, the “% inhibition T4 90'” value (DRC-2, concentration 40) was -11% and the “% inhibition T4 180'” value (DRC-2, concentration 20) was -9%. The “% inhibition T4 180'” value (DRC-2, concentration 40) was -11% and the “% inhibition T4 180'” value (DRC-2, concentration 80) was -10%.

In the case of `O=C(Nc1ccc2c(c1)Cc1cc(NC(=O)c3ccco3)ccc1-2)c1ccco1` [KU0038977], the “% inhibition T4 10'” value (DRC-2, concentration 80) was 20%, the “% inhibition T4 40'” value (DRC-2, concentration 20) was 25% and the “% inhibition T4 40'” value (DRC-2, concentration 40) was 35%. The “% inhibition T4 90'” value (DRC-2, concentration 20) was 25%, the “% inhibition T4 90'” value (DRC-2, concentration 40) was 35% and the “% inhibition T4 90'” value (DRC-2, concentration 80) was 35%. For the same compound, the “% inhibition T4 180'” value (DRC-2, concentration 20) was 20%.
